Measured values as given in a melting point compilation (Tetko et al.; mined from patent text by program, amines drawn as free bases though some values may be those of a salt).

Row | melting point [°C] | SMILES
1 | 155 to 157 | CCC1c2[nH]c3ccccc3c2CC(C(=O)O)N1C(=S)SC (centres undefined)
2 | 91 to 94 | CCCC1C=C2NC(=O)CC[C@]2(C)[C@H]2CC[C@]3(C)[C@@H]([C@H](C)CCCC(C)C)CC[C@H]3[C@H]12 (some centres undefined)
3 | 206 to 208 | COCc1cc(-c2nnc3c4ccccc4c(OCc4ncnn4C)nn23)no1
4 | 166 to 168 | CCn1nc(-c2nc(C#N)c(NCc3ccc(OC)cc3)nc2-c2ccccc2)ccc1=O
5 | 256 to 257 | CC(C)n1nc(-c2sc(N)nc2-c2ccc(F)cc2)ccc1=O
6 | 103 to 109 | CCCNC(=O)C(C)Cc1ccc2c(c1)c(Cc1ccc(C(=O)O)cc1OC)cn2C(C)C (centres undefined)
7 | 106 to 109 | C=CCN1CC(=O)N(c2cc(Cl)ccc2C)C1=S
8 | 248 to 249 | COc1cccc(N(C)c2nc(NC(=O)C(C)(C)C)nc3[nH]c4ccccc4c23)c1
9 | 98 to 99 | COc1ccc(-c2ncsc2-c2ccc(OC)cc2)cc1
10 | 194 to 195 | CC#CCOc1ccc(/C=C/C(=O)Nc2ccccc2C(=O)O)cc1OC
11 | 132 to 134 | COc1ccccc1-c1cc(F)cc(OCc2ccc3c(-c4ccoc4)cc(C#N)nc3c2)c1
12 | 178 to 180 | CC(=O)N(C)c1cccc(S(=O)(=O)c2ccc(N)cc2)c1
13 | 229 to 230 | CCOCc1nc2c(N)nc3ccccc3c2n1CCCCS(=O)(=O)Nc1ccc(OC)cc1
14 | 233 to 235 | CNC1CCN(c2c(F)cc3c(=O)c(C(=O)O)cn(C4CC4)c3c2C)CC1C (centres undefined)
15 | 106 to 110 | CCCCc1oc2ccccc2c1C(=O)O
16 | 138 to 139 | CCCCCCCCCCC(=O)NCc1cccc2c1C(=O)N(C1CCC(=O)NC1=O)C2=O (centres undefined)
17 | 181 to 182 | CC(=O)NC1C(NC(=O)NCCCl)OC(CO)C(O)C1O (centres undefined)
18 | 108 to 110 | COC(c1cc(-c2ccc(F)cc2)c(-c2ccc(F)cc2)n1C)(C(F)(F)F)C(F)(F)F
19 | 138 to 141 | COc1cn(-c2cccc(C3=CCOCC3)c2F)nc(-c2ccnn2-c2ccccc2)c1=O
20 | 220 | Cc1cc(C)cc(Oc2c(CCCc3ccccc3)c(C)[nH]c(=O)c2I)c1
21 | 180 to 181 | CCOC(=O)C(Cc1ccccc1)NC(=O)COc1ccc(C2=NNC(=O)NC2)cc1Cl (centres undefined)
22 | 128 to 133 | COc1ccc(CCc2c(Cl)cncc2Cl)c2c1OC(C)(C)C2
23 | 143 to 144 | Cc1cc2oc(N(N)CCC#N)nc2c(C)c1C
24 | > 260 | COc1ccc2cc3c(Nc4ccc(Cl)cc4Cl)c(C#N)cnc3cc2c1

Row | melting point [°C] | SMILES
25 | 190 to 192 | c1ccc(C2CN(CCc3ccccn3)Cc3c2[nH]c2ccccc32)cc1 (centres undefined)
26 | 114 to 117 | CC(C)=CCCC(C)C1CCC2C3=CC=C4CC(O)CCC4(C)C3CCC21C (centres undefined)
27 | 135 to 136 | C=CCN(Cc1cc(Br)ccc1OCc1ccccc1)c1ccc(C(=O)O)nn1
28 | 93.3 to 96.2 | O=C(Nc1ccc(F)cc1)c1ccccc1Cl
29 | 192 to 193 | CSc1ncc2ccc(=O)n(C)c2n1
30 | 179 to 181 | CCOCc1nc2c(N)nc3ccccc3c2n1OC(C)C
31 | 116 to 118 | ClCc1cccc2c(-c3ccc(Br)cc3)nccc12
32 | 140 to 147 | Oc1ccc2nc(-c3ccc(O)c(F)c3)cc(-c3ccc(Cl)cc3)c2c1
33 | 131 | COC(=O)C=CC(=O)Nc1ccc(Cl)cc1C(=O)NC(C)C1CC1 (centres undefined)
34 | 140 | Cc1occ(C(F)(F)F)c1C(=O)O
35 | 100 to 102 | CCOC(=O)CCCCOc1ccc(OCC(F)(F)F)cc1C(=O)NCC1CCCCN1 (centres undefined)
36 | 203 to 204 | CCOC(=O)c1ncn2c1Cn1ccnc1-c1sccc1-2
37 | 103 to 104 | CC(=O)N(C)CC(c1ccc(Cl)cc1)c1ccc(Cl)cc1
38 | 192 | Cc1cc(N)c([N+](=O)[O-])cc1NC(=O)OCCCl
39 | 224 to 226 | CC(C)(C)c1cc(CCc2cc(F)cc(F)c2NC(=O)NC(C)(C)c2ccc(Cl)c(Cl)c2)cc(C(C)(C)C)c1O
40 | 48 to 50 | CCOC(=O)c1ccc(C=C(C)c2ccc3c(c2)OCCC3(C)C)cc1
41 | > 260 | Cn1ccc2c(-n3cc(C(=O)O)c4cccnc43)ncnc21
42 | 188 to 191 | Cc1oc(-c2ccccc2)nc1CCOc1ccc(CC2SC(=O)NC2=O)c2ccccc12 (centres undefined)
43 | 62 to 67 | O=C1Cc2ccccc2N1c1ccsc1
44 | 82 to 83 | CCOC(=O)c1cn(Cc2ccccc2)nc1NC(=O)NCc1ccccc1
45 | > 250 | O=C(O)C1=CSC2C(=CC3=CN4CCCCCC4N3)C(=O)N12 (centres undefined)
46 | 90 to 92 | C=COCCN1C(=O)N(CN2C(=O)N(CCOC=C)C(=O)C2(C)C)C(C)(C)C1=O
47 | 69 to 71 | Cc1cc(C)cc(C(=O)N2CCN(C(=O)CNC3CN4CC3CC4Cc3ccccc3)C(c3ccc(Cl)c(Cl)c3)C2)c1 (centres undefined)
48 | 210 | CC(C)(C)OC(=O)Nc1cc(N2CCOC2=O)c(-c2ccc(F)cc2)cc1N

Row | melting point [°C] | SMILES
49 | 122 | CC(C)(C)Sc1c(CC(C)(C)C(=O)O)n(Cc2ccc(Cl)cc2)c2ccc(OCc3ccc4cccnc4n3)cc12
50 | 210 to 220 | COC(=O)c1ncn2c3cccc(Cl)c3c(=O)n(C)c12
51 | 189 | N#Cc1c(N2CCN(C(=O)c3cccs3)CC2)c2cccnc2n(CC2CC2)c1=O
52 | < 250 | CC1(C)C2=C(Cl)C(=O)C(Cl)=CC2=Nc2ccc(O)cc21
53 | 198 to 203 | Cc1ccccc1C(=O)Nc1ccc(C(=O)N2Cc3ccccc3Cc3ccccc32)cc1
54 | 292 to 295 | Cn1cc2c(c(C#N)c1=O)Nc1ccccc1S2
55 | 215 to 216 | O=C(O)C1=Cc2cc(-c3ccc(Br)cc3)ccc2OC1C(F)(F)F (centres undefined)
56 | 296 to 298 | O=C1C2=C(NC3(C=N2)OCCO3)c2ccccc21
57 | 62.3 to 64.7 | Nc1c(Cl)cc(C(O)CNCCCCCCOCCCCCCc2ccc3ccccc3n2)cc1Cl (centres undefined)
58 | 258 to 259 | O=C1c2ccccc2-c2c1c1ccc([N+](=O)[O-])cc1c(=O)n2CCCNS(=O)(=O)c1ccccc1
59 | 159 to 161 | Cc1ccc2c(c1)/C(=N\NC(N)=O)C(=O)N2CCN(C(C)C)C(C)C
60 | > 300 | CS(=O)(=O)c1ccc2c(c1)[nH]c(=O)c(=O)n2C1CCCCC1
61 | 121 to 123 | CNC(=O)N(O)C(C)C#CCCc1ccccc1 (centres undefined)
62 | 73 to 74 | CCOC(=O)C(C)(C)Oc1ccc(CNc2ccc(Cl)cc2)cc1OC
63 | 114 to 115 | N#CC1=CCOc2ccc(F)cc21
64 | 93 to 96 | C#CCN(Cc1ccc2nc[nH]c(=O)c2c1)c1ccc(C(=O)NCc2cccc([N+](=O)[O-])c2)cc1
65 | 64 to 65 | Cc1cc(Sc2ccccc2)ccc1N
66 | 125 | Nc1ccc(C(=O)c2ccccc2)cc1C=O
67 | 131 to 132 | CC(=O)Nc1ccc(S(F)(F)(F)(F)F)cc1
68 | 229 to 230 | O=C(O)c1cccc(-c2ccc3c(c2)C(c2cc(Cl)ccc2Cl)CC3)c1 (centres undefined)
69 | 176 to 178 | Cc1ccc(Sc2cncc3sc(C(=O)NN)cc23)cc1
70 | 141 to 142 | C=CCOc1ccc(C(=O)c2ccc(Cl)c(S(=O)(=O)N=CN(C)C)c2)c(Cl)c1Cl
71 | 180 to 181 | O=C(Nc1c[nH]nc1C(=O)NCC(O)Cc1ccccc1)c1ccccn1 (centres undefined)
72 | 173 to 175 | CCOC(=O)C1Cc2cc(Cl)ccc2NC1=O (centres undefined)

Row | melting point [°C] | SMILES
73 | 83 to 86 | NS(=O)(=O)c1cc(C(=O)O)cc(SCc2ccccn2)c1-c1ccccc1
74 | 85 to 86 | CCn1ncnc1COc1nn2c(-c3cc(F)ccc3F)nncc2c1C(C)(C)CC
75 | 139 | CC(OCn1cc(Cl)cnc1=O)c1ccccc1 (centres undefined)
76 | 102 | Cc1cc(C)c([N+](=O)[O-])cc1N1CCC1=O
77 | 153 to 154 | CC(C)(C)OC(=O)N1CCN(c2ccc(C(=O)CSc3ccnc4ccccc34)cc2)CC1
78 | 173 to 180 | COc1cc(C)nc(NC(=O)NS(=O)(=O)c2cccc(NC(=O)OC(C)C)c2)n1
79 | 216 to 218 | CNc1nc(C)c(-c2ccnc(Nc3ccc(CCO)cc3)n2)s1
80 | 196 to 197 | CN1C(=O)C2(COc3cc4c(cc32)OCCO4)c2c(C#N)cccc21 (centres undefined)
81 | 160 to 161 | N#Cc1cccc(C(=O)Nc2cccc(-n3nc(C(F)(F)F)cc3C(F)(F)F)c2)c1
82 | 148 to 159 | O=C(Nc1cccc(-c2ccnc3c(C(=O)c4cccs4)cnn23)c1)OCCCN1CCS(=O)(=O)CC1
83 | 145 to 146 | CSCCN1C(=O)N2CCOC2(c2ccccc2)c2cc(Cl)ccc21 (centres undefined)
84 | 175 to 176 | CC(=O)n1c2ccccc2c2ccc(C(=O)CCl)cc21
85 | 215 to 216 | Cc1nnc2n1-c1ccccc1C(c1ccc(Cl)cc1)=NN2Cc1ccc(NC=O)cc1
86 | > 310 | Cc1cccc(-c2c(C(N)=O)n(C)c(=O)c3ncccc23)c1
87 | 174 to 176 | Cn1c2c(ccc1=O)C(=O)CCC2
88 | 125 | CC(=O)OC1CSC(Oc2cncc(-c3cc4ccccc4o3)c2)C(OC(C)=O)C1OC(C)=O (centres undefined)
89 | 308 to 311 | Cc1c(F)cc2[nH]c(=O)c(=O)[nH]c2c1[N+](=O)[O-]
90 | 95 | CCOC(=O)Nc1ccc2oc(Cc3ccccc3)cc2c1
91 | 194 to 197 | CONC(=O)c1cnn(-c2ccccc2)c1Br
92 | 256 | Cc1nc(-c2ccc(C(=O)N[C@H]3CC[C@H](CCN4CCC(c5cccc6c5CCO6)CC4)CC3)cc2)no1
93 | 132 to 135 | COc1ccc(O[C@@H]2CCNC[C@H]2O)c(Br)c1 (relative stereo)

Row | SMILES | melting point [°C]
94 | COC(=O)c1ccc(Cn2nc(C(N)=O)c3ccccc32)cc1 | 163 to 165
95 | Clc1c(NC2=NCCO2)ccc2[nH]ncc12 | 223 to 225
96 | CC(=O)NCC1CN=C(c2ccccc2)c2cc(Cl)ccc2N1 (centres undefined) | 240 to 245
97 | Cc1cccc(NC(=O)NC2N=C(c3ccccc3)c3ccccc3N(C)C2=O)c1 (centres undefined) | 207 to 209
98 | NCC1(O)CCCc2c1ccc1c2OCO1 (centres undefined) | 140 to 142
99 | COCCN1C(=S)N(c2ccc(C#N)c(C(F)(F)F)c2)C(=O)C1(C)C | 98 to 99
